Assays:
A375 = experiment: Cell cycle analysis, A375; format: cell-based; conditions: 500 nM
Method: (§1) The cells are pelleted by gentle centrifugation 1200 rpm/5 min/4° C., then the supernatant is discarded and the cells are fixed with 1 mL of PBS/Ethanol 70% overnight at −20° C. The tubes are then centrifuged during 5 minutes at 1200 rpm and the supernatant is removed. The pellet is then re-suspended in 450 μL of PBS before 50 μL of RNAse (1 mg/mL) and 5 μL of propidium iodide (2 mg/mL) are added. Each tube is left 30 minutes at 37° C. and immediately analysed by flow cytometry after incubation.
(§2) A biparametric dot plot representation FL3 peak vs FL3 integer is plotted and the cells located on the diagonal are gated and analysed on a histogram representing the number of cells as a function of the FL3 peak.
(§3) To assess the relative position of cursors defining relative proportion of cells in subG1, G1, S or G2 phase of the cell cycle, G1 and G2 peaks are to be defined first:
(§4) The G1 peak is defined as the major peak in absence of treatment (generally X=200);
(§5) The G2 peak is centered on the value which is twice the value of the G1 peak (generally X=400).
(§6) Cells in subG1 phase are plotted in the part of the histogram preceding the G1 peak (generally X<200) and cells in S phase are enclosed in the area between the G1 and G2 peaks.
(§7) On this graphic, subG1, G1, S and G2/M phases of the cell cycle can thus be defined.
(§8) Viability and cell cycle profile, tested with compound (01), at 500 nM: […]

[1] = test system: prostate and lung tumor cells; experiment: Viability and cell cycle profile, conclusion for prostate and lung tumor cells; format: cell-based; conditions: 500 nM; cell cycle arrest at entry into mitosis
Method: (§9) Propidium iodide (PI) cannot normally cross the cell membrane; it is thus excluded by viable cells but not from dying or dead cells, having a damaged membrane, where it intercalates into double-stranded nucleic acids and fluoresces when excited at 488 nm.
(§10) The cells are pelleted by gentle centrifugation 1200 rpm/5 min/4° C., then the supernatant is discarded and replaced by 1 mL of fresh medium. One hundred microliters of propidium iodide (40 μg/mL) are added to 400 μL of the cell suspension in a FACS tube and viability is measured by flow cytometry as the percentage of cells whose fluorescence recorded on FL-3 channel is comprised between 0 and 2.
as §1, §8

[2] = Viability (propidium iodide staining), PC3; format: cell-based; conditions: human, PC3 cells (prostate), 500 nM
Method: as §9, §10, §8

[3] = Viability (propidium iodide staining), U937; format: cell-based; conditions: human, U937 cells (myeloid), 500 nM
Method: as §9, §10, §8

Jurkat = experiment: Cell cycle analysis, Jurkat; format: cell-based; conditions: 500 nM
Method: as §1, §2, §3, §4, §5, §6, §7, §8

NCI-H460 = experiment: Cell cycle analysis, NCI-H460; format: cell-based, human; conditions: 500 nM
Method: as §1, §2, §3, §4, §5, §6, §7, §8

U937 cells = experiment: Apoptosis assays by flow cytometry (caspase 3, annexin-V, sub-G1, G2/M, PI) in U937 cells; format: cell-based, human; conditions: 0.5 μM, 4 to 24 hours
Method: FIG. 4: This figure depicts the time course of cellular effects induced by 0.5 μM of compound 01 in U937 cells.
The percentage of cells showing activated Caspase 3 and phosphadityl serine exposure at the outer face of the plasma membrane were determined by flow cytometry, according the enclosed protocols. Both assays enable to detect early markers of apoptosis. […] Such DNA content is classically used as a marker of apoptosis. […] Finally, in this same experiment, the percentage of dead cells was determined by incorporation of propidium iodine. […]
Wells corresponding to 4, 6, 8, 10 hours of incubation and Control 1 were analyzed on day 1.
Wells corresponding to 12, 14, 16, 20, 24 hours of incubation and Control 2 were analyzed on day 2. […]
Briefly, 5×10^5 cells were pelleted by centrifugation 1600 rpm/4° C., resuspended in 100 μl of ice-cold 1× Annexin-V Binding Buffer containing 1 μl of Annexin V-FITC solution and 5 μl of PI (250 μg/ml). After 15 minutes of incubation on ice in the dark, 400 μl of 1× binding buffer were added and cell preparations analysed by flow cytometry. […]
For each data point, a minimum of 20.000 cells were analysed.
Caspase-3,7 activity and Annexin-V binding were quantified using the FL-1 channel while PI staining was quantified using the FL-4 channel. […]

Question: For `COc1cc(NC(=S)NC(=O)/C=C/c2ccco2)ccc1-c1cc2ccccc2oc1=O` [Compound 01, (2E)-3-(2-furyl)-N-({[3-methoxy-4-(2-oxo-2H-chromen-3-yl)phenyl]amino}carbonothioyl)acrylamide], which “Cell cycle profile - 72 h” value (A375; G2/M phase fraction) is on record?
Answer: The value was “G2/M accumulation”.

Question: What about the “Cell cycle profile - 72 h” value (A375; sub-G1 fraction) of the same compound?
Answer: Its value is “Strong sub-G1”.

Question: What about the “Effect on prostate and lung tumor cells” value [1] of the same compound?
Answer: Its value is “cytostatic effect”.

Question: What about the viability at 48 h, 0.5 µM ([2]; 48 h) of the same compound?
Answer: The viability at 48 h, 0.5 µM was 92%.

Question: And the viability at 72 h, 0.5 µM ([2]; 72 h)?
Answer: The viability at 72 h, 0.5 µM was 90%.

Question: And the viability at 48 h, 0.5 µM ([3]; 48 h)?
Answer: Its viability at 48 h, 0.5 µM is 25%.

Question: What about the viability at 72 h, 0.5 µM ([3]; 72 h) of the same compound?
Answer: The viability at 72 h, 0.5 µM was 6%.

Question: What about the “Cell cycle profile - 72 h” value (Jurkat) of the same compound?
Answer: Its value is “Strong sub-G1”.

Question: What about the “Cell cycle profile - 72 h” value (NCI-H460; G2/M phase fraction) of the same compound?
Answer: Its value is “G2/M accumulation”.

Question: What about the “Cell cycle profile - 72 h” value (NCI-H460; sub-G1 fraction) of the same compound?
Answer: Its value is “Strong sub-G1”.

Question: What about the “Cytostatic effect on U937 cells (early increase of G2/M population)” value (U937 cells) of the same compound?
Answer: Its value is “cytostatic effect”.

Question: What about the “Induction of apoptosis (activated caspase 3, phosphatidylserine exposure, sub-G1 DNA content)” value (U937 cells) of the same compound?
Answer: Its value is “induces apoptosis”.

Source: US20090203685A1, “ANTI-PROLIFERATIVE COMPOUNDS FROM A 3-ARYL-COUMARINE OR 3-ARYL-QUINOLIN-2-ONE AND USES THEREOF” (EOS (ETHICAL ONCOLOGY SCIENCE) S.P.A., priority 2006, published 2009)
